# Reference: patent US10501497B2, “Cyclic polypeptides, method for obtaining them and the therapeutic use thereof” (AXOLTIS PHARMA, priority 2015, dated 2019)
# Read-outs that look alike come from different tables or passages of the source. Bridge positions count the residues as written; N and C are the ends. Peptide text beside a SMILES is read from it.
# Assays:
# physchem [1] = format: physicochemical
# Experimental: In the case of the polypeptide of amino acid sequence: […] Solubility is particularly important for IT injections because there is a limitation of the injection volume, a limit which is much greater than that for peripheral injections, and a limitation in the solvents and solutions that may be used, for example. The use of a 5% glucose solution improves the solubility of the polypeptide of amino acid sequence: […] [SEQ ID NO: 58] by bringing it to around 10 mg/ml, wherein this solution remains an isotonic solution that is compatible with an IT injection.
# neprylysine = neprylysine (Homo sapiens, UniProt P08473); test: Enzymatic digestion with neprylysine analysed by LC/MS/MS; format: in vitro ADME; conditions: for Percentage of digestion / metabolised at 0.5 h: neprylysine; for Area under the curve in the presence of enzyme: neprylysine diluted by a tenth in water; for Area under the control curve (no enzyme): LC/MS/MS; for metabolised at 0.5 h: read-out: Percentage of digestion
# Chain of neprylysine (P08473 whole entry): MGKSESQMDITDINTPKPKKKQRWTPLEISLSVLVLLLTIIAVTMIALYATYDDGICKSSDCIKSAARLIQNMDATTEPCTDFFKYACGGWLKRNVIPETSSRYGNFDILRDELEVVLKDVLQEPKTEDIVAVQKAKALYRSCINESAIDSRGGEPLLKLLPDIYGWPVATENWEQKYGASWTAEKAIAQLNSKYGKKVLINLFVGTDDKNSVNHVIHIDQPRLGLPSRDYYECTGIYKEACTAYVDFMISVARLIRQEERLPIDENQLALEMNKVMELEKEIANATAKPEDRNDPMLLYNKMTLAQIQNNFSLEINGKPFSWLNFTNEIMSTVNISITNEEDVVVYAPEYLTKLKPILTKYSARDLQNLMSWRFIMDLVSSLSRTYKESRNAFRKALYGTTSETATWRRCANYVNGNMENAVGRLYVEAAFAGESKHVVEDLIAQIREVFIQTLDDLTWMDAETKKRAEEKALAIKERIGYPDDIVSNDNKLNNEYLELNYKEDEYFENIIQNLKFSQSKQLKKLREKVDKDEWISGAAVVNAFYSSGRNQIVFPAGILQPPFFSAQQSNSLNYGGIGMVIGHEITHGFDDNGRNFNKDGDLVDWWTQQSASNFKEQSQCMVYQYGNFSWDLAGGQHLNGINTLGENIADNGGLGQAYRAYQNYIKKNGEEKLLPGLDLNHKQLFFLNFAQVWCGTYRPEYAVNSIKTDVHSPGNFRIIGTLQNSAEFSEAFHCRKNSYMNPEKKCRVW
# Experimental: A so-called “control” sample without enzyme and effected in parallel was performed to establish an analytical reference for each parameter explored. The polypeptides are diluted in deoxygenated water to maintain the stability of both forms over time. Digestions were analyzed by the LC/MS/MS mass spectrometry technique. The percentage of digestion corresponds, for a given polypeptide, to the percentage of the area under the curve in the presence of enzyme relative to the area under the control curve for the same polypeptide.
# physchem [2] = conditions: aqueous 0.9% NaCl solution
# Experimental: Two weighings of 0.5 mg are made in a 1.5 ml micro tube for the polypeptide
# The tubes are then vortexed for a few seconds and one drop of each polypeptide solution so obtained is placed on a glass slide for observation under an optical microscope.
solubility (physchem [1]; solubility in 5% glucose solution),solubility (physchem [1]; solubility in the physiological liquid),"metabolised at 0.5 h (neprylysine; isolated neprylysine enzyme, T = 30 min)",solubility (physchem [2]),SMILES,Percentage of digestion (neprylysine; T = 0 min),Area under the curve in the presence of enzyme (neprylysine; T = 0 min),Area under the control curve (no enzyme) (neprylysine; T = 0 min),Percentage of digestion (neprylysine; T = 30 min),Area under the curve in the presence of enzyme (neprylysine; T = 30 min),Area under the control curve (no enzyme) (neprylysine; T = 30 min),"metabolised at 0.5 h (neprylysine; isolated enzyme neprilysin, T = 30 min)"
~10000 µg/mL,1000 to 2000 µg/mL,28%,~2000 µg/mL,"N=C(N)NCCC[C@H](NC(=O)[C@H](CO)NC(=O)[C@H](CS)NC(=O)[C@H](CO)NC(=O)[C@H](CO)NC(=O)[C@H](Cc1c[nH]c2ccccc12)NC(=O)CNC(=O)[C@H](CO)NC(=O)[C@@H](N)Cc1c[nH]c2ccccc12)C(=O)N[C@@H](CO)C(=O)N[C@@H](CS)C(=O)NCC(=O)O [SEQ ID NO: 58, W-S-G-W-S-S-C-S-R-S-C-G] (H-WSGWSSCSRSCG-OH; N-terminus and C-terminus assumed)",none,797200,788400,28%,576500,802800,–
–,–,–,–,"N=C(N)NCCC[C@@H]1NC(=O)[C@H](CO)NC(=O)[C@@H](NC(=O)[C@H](CO)NC(=O)[C@H](CO)NC(=O)[C@H](Cc2c[nH]c3ccccc23)NC(=O)CNC(=O)[C@H](CO)NC(=O)[C@@H](N)Cc2c[nH]c3ccccc23)CSSC[C@@H](C(=O)NCC(=O)O)NC(=O)[C@H](CO)NC1=O [SEQ ID NO: 2, W-S-G-W-S-S-C-S-R-S-C-G] (H-WSGWSSCSRSCG-OH; disulfide 7-11)",none,3220000,3008000,8.5%,3401000,3722000,8.5%
